Row | Structure (SMILES) | logP
1 | O=C(CNc1ccc2[nH]c(=O)[nH]c2c1)N1CCC(Cc2ccc(F)cc2)CC1 | 3.21
2 | O=C(Nc1ccc2[nH]c(=O)oc2c1)C(=O)N1CCC(Cc2ccccc2)CC1 | 3.78
3 | CS(=O)(=O)N[C@H]1CC[C@H](CCN2CCN(c3cccc(Cl)c3Cl)CC2)CC1 | 4.03
4 | CC(=O)NC1CCC(CCN2CCN(c3cccc(Cl)c3Cl)CC2)CC1 (stereo not given) | 4.18
5 | CCC(O)NC1CCC(CCN2CCN(c3cccc(Cl)c3Cl)CC2)CC1 (stereo not given) | 4.29

Next, values leading:

Row | logP | Structure (SMILES)
6 | 3.76 | O=C(NCCCCN1CCC(Nc2cccc(C(F)(F)F)c2)CC1)c1ccc(Br)cc1
7 | 3.62 | N#Cc1cc(N2CCN(CCCCNC(=O)C=Cc3cccnc3)CC2)cc(C(F)(F)F)c1
8 | 4.22 | O=C(NCCCCN1CCC(Oc2cccc(C(F)(F)F)c2)CC1)c1ccnc2ccccc12
9 | 4.28 | O=C(NCCCCN1CCC(c2cccc(C(F)(F)F)c2)CC1)c1ccc(Br)cc1
10 | 4.55 | N#Cc1cc(N2CCN(CCCCNC(=O)c3cnc4ccccc4c3)CC2)cc(C(F)(F)F)c1

Reference: the SangsterLogP compilation
